Source: publication PMC7466261, “In Silico and In Vitro Analysis of Multifunctionality of Animal Food-Derived Peptides” (Foods, 2020)
Where a SMILES comes first, the peptide text is derived from it. Where no end group is shown, it is not given here.

Target: T1, angiotensin-converting enzyme (ACE) (Oryctolagus cuniculus, UniProt P12822)
T1 sequence (P12822 34-1310): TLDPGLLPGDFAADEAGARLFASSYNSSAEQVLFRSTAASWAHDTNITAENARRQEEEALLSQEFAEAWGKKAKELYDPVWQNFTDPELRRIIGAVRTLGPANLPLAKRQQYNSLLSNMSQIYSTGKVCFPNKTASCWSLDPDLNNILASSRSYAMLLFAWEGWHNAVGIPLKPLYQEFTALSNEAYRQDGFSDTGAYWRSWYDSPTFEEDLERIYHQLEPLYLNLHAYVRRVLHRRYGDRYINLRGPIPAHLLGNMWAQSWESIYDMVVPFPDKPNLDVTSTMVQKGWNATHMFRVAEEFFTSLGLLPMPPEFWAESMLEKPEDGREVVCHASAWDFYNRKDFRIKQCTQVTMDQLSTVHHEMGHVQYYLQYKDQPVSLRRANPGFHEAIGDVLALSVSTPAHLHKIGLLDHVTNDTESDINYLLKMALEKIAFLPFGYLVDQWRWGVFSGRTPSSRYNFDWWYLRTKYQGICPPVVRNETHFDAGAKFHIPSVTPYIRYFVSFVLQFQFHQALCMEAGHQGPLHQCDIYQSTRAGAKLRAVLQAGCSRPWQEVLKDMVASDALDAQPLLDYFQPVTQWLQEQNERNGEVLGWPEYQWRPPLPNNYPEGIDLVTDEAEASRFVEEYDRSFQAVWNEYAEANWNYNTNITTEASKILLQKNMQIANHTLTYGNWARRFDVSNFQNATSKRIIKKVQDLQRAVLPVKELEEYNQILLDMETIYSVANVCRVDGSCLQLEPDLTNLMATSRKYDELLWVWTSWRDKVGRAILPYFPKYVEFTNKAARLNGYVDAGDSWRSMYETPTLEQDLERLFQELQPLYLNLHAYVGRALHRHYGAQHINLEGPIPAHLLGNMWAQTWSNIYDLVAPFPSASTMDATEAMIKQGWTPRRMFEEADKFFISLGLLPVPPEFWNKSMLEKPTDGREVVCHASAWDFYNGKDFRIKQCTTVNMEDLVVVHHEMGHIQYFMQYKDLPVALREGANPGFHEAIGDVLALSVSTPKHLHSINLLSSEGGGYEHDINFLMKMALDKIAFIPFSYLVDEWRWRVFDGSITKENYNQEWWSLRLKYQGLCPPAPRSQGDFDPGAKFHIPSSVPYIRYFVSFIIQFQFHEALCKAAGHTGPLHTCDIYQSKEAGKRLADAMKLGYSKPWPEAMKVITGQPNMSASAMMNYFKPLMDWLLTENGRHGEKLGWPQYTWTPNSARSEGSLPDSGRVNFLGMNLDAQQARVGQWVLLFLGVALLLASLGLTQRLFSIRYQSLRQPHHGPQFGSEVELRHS
Experiment: ACE-inhibitory activity, fluorescence assay with Abz-Gly-Phe(NO2)-Pro
Type: biochemical
Conditions: mean ± SD; read-out: ACE Inhibitory Activity (IC50-µM)
Procedure: ACE (1 U/mL) was diluted (0.04 U/mL) in 150 mM Tris buffer containing 0.1 μM ZnCl2 (pH 8.3). Forty microliters of sample (or MilliQ water for blank and control) were added to a black multi-well plate (Porvair, Leatherhead, UK). Then, 40 μL of ACE were added, and the reaction started after the addition of 160 μL of the substrate. The plate was incubated at 37 °C for 30 min, and the fluorescence was measured in a FLUOstar OPTIMA plate reader (BMG Labtechnologies GmbH, Offenburg, Germany) with 320 nm excitation and 420 nm emission filters.

Row | Molecule | IC50 [µM]
1 | RYLGY [RYLGY] | 3.08 ± 0.11
2 | FYPEL [FYPEL] | 62 ± 6.27
3 | CC(C)C[C@H](N)C(=O)NCC(=O)N[C@@H](Cc1ccc(O)cc1)C(=O)O [LGY] (H-Leu-Gly-Tyr-OH; N-terminus and C-terminus assumed) | 26.1 ± 0.83
4 | YPFPGPIP | 224 ± 43.9
5 | YPFVEP [YPFVEP] | 7.48 ± 0.03
6 | AYFYPE [AYFYPE] | 774 ± 38.2
7 | CC(C)C[C@H](NC(=O)[C@@H](N)CC(C)C)C(=O)N[C@@H](Cc1ccccc1)C(=O)O [LLF] (H-Leu-Leu-Phe-OH; N-terminus and C-terminus assumed) | 94.8 ± 2.97
8 | YGFLP [YGFLP] | 272.39 ± 0.25

Tested on: not listed separately
Experiment: Oxygen radical absorbance capacity (ORAC)-FL assay
Design: key to Antioxidant Activity ORAC, symbol: **: Antioxidant activity not detected at the highest peptide concentration analyzed (0.20 µmol)
Conditions: highest peptide concentration analyzed 0.20 µmol
Procedure: An oxygen radical absorbance capacity (ORAC)-FL assay was used based on the protocol previously optimized. The reaction was performed at 37 °C in 75 mM phosphate buffer (pH 7.4). The final assay mixture volume was 200 µL, containing 70 nM FL, 12 mM AAPH, and antioxidant [(Trolox, 1–8 µM) or sample (at different concentrations)]. Fluorescence was measured during 137 min in a FLUOstar OPTIMA plate reader (BMG Labtech) with 485 nm excitation and 520 nm emission filters. The equipment was controlled by the FLUOstar Control ver. 1.32 R2 software for fluorescence measurement. Samples were analyzed in triplicate. The final ORAC-FL value was expressed as μmol Trolox equivalents (TE) per μmol peptide.

Row | Molecule | Antioxidant Activity ORAC, symbol
9 | CC(C)C[C@H](NC(=O)[C@@H](N)CC(C)C)C(=O)N[C@@H](Cc1ccccc1)C(=O)O [LLF] (H-Leu-Leu-Phe-OH; N-terminus and C-terminus assumed) | **

Same assay, conditions: mean ± SD

Row | Molecule | Antioxidant Activity ORAC [µmol TE/µmol peptide]
10 | CC(C)C[C@H](N)C(=O)NCC(=O)N[C@@H](Cc1ccc(O)cc1)C(=O)O [LGY] (H-Leu-Gly-Tyr-OH; N-terminus and C-terminus assumed) | 2.00 ± 0.09

Target: T1, angiotensin-converting enzyme (ACE)
Experiment: not given
Conditions: BIOPEP-UWM and MBPDB; read-out: ACE inhibitory IC50; cited from earlier work

Row | Molecule | IC50 [µM]
11 | AYFYPE [AYFYPE] | 106

Same assay, conditions: BIOPEP-UWM; read-out: ACE inhibitory IC50; cited from earlier work

Row | Molecule | IC50 [µM]
12 | CC(C)C[C@H](NC(=O)[C@@H](N)CC(C)C)C(=O)N[C@@H](Cc1ccccc1)C(=O)O [LLF] (H-Leu-Leu-Phe-OH; N-terminus and C-terminus assumed) | 79.8

Same assay, conditions: database value; read-out: ACE inhibitory IC50; cited from earlier work

Row | Molecule | IC50 [µM]
13 | FYPEL [FYPEL] | 80.6
14 | CC(C)C[C@H](N)C(=O)NCC(=O)N[C@@H](Cc1ccc(O)cc1)C(=O)O [LGY] (H-Leu-Gly-Tyr-OH; N-terminus and C-terminus assumed) | 21.5
15 | AYFYPE [AYFYPE] | 261

Same assay, conditions: literature value; read-out: ACE inhibitory IC50; cited from earlier work

Row | Molecule | IC50 [µM]
16 | VPP [reference compound] | 9
17 | HLPLP [reference compound] | 41
18 | IPP [reference compound] | 5
19 | YGFLP [YGFLP] | 260

Tested on: not listed separately
Experiment: ABTS assay (TEAC)
Conditions: mean ± SD
Procedure: Antioxidant activity was measured using a previously optimized method with some modifications. A mixture of 7 mM ABTS stock solution and 2.45 mM potassium persulfate was kept in the dark at room temperature for 12-16 h to form the ABTS radical cation (ABTS^•+). The ABTS^•+ solution was diluted in 5 mM of phosphate buffer solution (PBS) (pH 7.4) to an absorbance of 0.70 ± 0.02 at 734 nm at 30 °C. Two mL of diluted ABTS^•+ solution were mixed with 20 μL of sample or Trolox (0–0.015 μmol), and the absorbance was recorded at 734 nm after 10 min incubation at 30 °C. The Trolox equivalent antioxidant capacity (TEAC) value was expressed as μmol TE per μmol peptide. Each sample was analyzed in triplicate.

Row | Molecule | Antioxidant Activity TEAC [µmol TE/µmol peptide]
20 | CC(C)C[C@H](N)C(=O)NCC(=O)N[C@@H](Cc1ccc(O)cc1)C(=O)O [LGY] (H-Leu-Gly-Tyr-OH; N-terminus and C-terminus assumed) | 1.54 ± 0.01

Tested on: not given
Experiment: not given
Conditions: MBPDB; cited from earlier work

Row | Molecule | ORAC
21 | CC(C)C[C@H](N)C(=O)NCC(=O)N[C@@H](Cc1ccc(O)cc1)C(=O)O [LGY] (H-Leu-Gly-Tyr-OH; N-terminus and C-terminus assumed) | ORAC = 2.31 µmol TE/µmol peptide **
